Test results published in patent US12234211B2, “Cycloolefin substituted heteroaromatic compounds and their use” (HUTCHISON MEDIPHARMA LIMITED, priority 2017, dated 2025).

Legend:
IDH2-R140Q = target: T1, IDH2-R140Q (Homo sapiens, UniProt P48735, R140Q); test: Fluorescent determination of IDH2-R140Q cell activity (2-HG in U87MGR140Q cells); type: cell-based; conditions: 72 hours incubation, read-out: IC50 (2-HG inhibition)
T1 construct: expressed in transfected cells
T1 sequence (P48735 40-452 R140Q): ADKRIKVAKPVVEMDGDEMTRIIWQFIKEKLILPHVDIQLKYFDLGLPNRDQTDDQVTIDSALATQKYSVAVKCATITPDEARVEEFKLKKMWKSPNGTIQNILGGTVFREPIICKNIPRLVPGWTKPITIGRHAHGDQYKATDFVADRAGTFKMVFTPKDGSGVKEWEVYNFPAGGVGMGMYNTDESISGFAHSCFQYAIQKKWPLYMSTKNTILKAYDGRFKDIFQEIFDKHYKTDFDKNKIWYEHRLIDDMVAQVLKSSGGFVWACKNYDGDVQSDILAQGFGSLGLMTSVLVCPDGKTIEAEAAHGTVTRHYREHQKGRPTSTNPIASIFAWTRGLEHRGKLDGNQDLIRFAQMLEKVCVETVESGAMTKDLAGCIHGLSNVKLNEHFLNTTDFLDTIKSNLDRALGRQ

IDH1-R132H = target: T2, IDH1-R132H (Homo sapiens, UniProt O75874, R132H); test: Fluorescent determination of IDH1-R132H cell activity (2-HG in U87MGR132H cells); type: cell-based; conditions: 2-HG inhibition in U87MGR132H cells transfected with IDH1-R132H mutant plasmid
T2 construct: expressed in transfected cells; host or cells: U87MG cells (U87MGR132H)

[1] = Metabolic stability test in liver microsomes (mouse); type: in vitro ADME; conditions: percentage of remaining compound after incubation for 30 minutes vs 0 minute; 1 μM compound; 0.5 mg/mL liver microsomes; 37° C.
Experimental: (§1) Male CD1 mouse liver microsomes was supplied by Research Institute for Liver Diseases (Shanghai) Co., Ltd. Male SD rat liver microsomes was supplied by BioreclamationIVT in US.
(§2) Phenacetin, glucose-6-phosphate (G-6-P), glucose-6-phosphate dehydrogenase (G-6-PD), and nicotinamide adenine dinucleotide phosphate (NADP) were supplied by Sigma-Aldrich (Missouri, USA).
(§3) 10 mM stock solution of test compound: Certain amount of test compound was weighed and dissolved in certain volume of dimethylsulfoxide (DMSO) to get the stock solution of test compound at 10 mM.
(§4) Reaction termination solution: Certain amount of phenacetin as internal standard was weighed and dissolved in acetonitrile to get the reaction termination solution at 1000 ng/mL, and stored at room temperature for use.
(§5) The stock solution of test compound was diluted to the designated concentration with organic solution (usually the mixtures of acetonitrile, methanol and water with different portions depending on the compound solution) to make the final concentration to be 1 μM and the contents of organic solvents no more than 1% (For DMSO, the controlled margin was 0.1%) in the final incubation system. 100 mM NADP, 500 mM G-6-P and 100 U/mL G-6-PDH were mixed and diluted with ultrapure water to provide the NADPH regenerating system containing 1 mM NADP, 5 mM G-6-P and 1 U/mL G-6-PD, which was pre-incubated at 37° C. water-bath for 10 min and then cooled on ice until being added into the reaction system. 20 mg/mL liver microsomes was mixed with 200 mM PBS and diluted with ultrapure water to make the concentrations of liver microsomes and PBS to be 0.5 mg/mL and 50 mM in the final incubation system, respectively. After the diluted liver microsomes was mixed with the NADPH regenerating solution, certain volumes of 100 mM EDTA and 300 mM MgCl2 (concentration of EDTA and MgCl2 in the final incubation system is 1 mM and 3 mM, respectively) were added, and the incubation system was put into 37° C. water bath. The incubation was commenced by adding the stock solution of test compound and maintained for 30 min. The incubation was terminated by adding the reaction termination solution. The 0 min sample was prepared by adding the reaction termination solution to the incubation system immediately prior to putting the system into the water bath with the addition of the stock solution of test compound. The terminated incubation mixtures were vortexed and centrifuged at 4400 rpm for 10 min, and the supernatant was collected for LC-MS/MS analysis.
(§6) The concentration of test compound was determined using LC-MS/MS method. Using the peak area ratio of the compound and the internal standard as an index, the percentage of remaining compound after incubation for 30 minutes as compared with the 0 minute sample was calculated, and the metabolic stability of the compound was evaluated.

[2] = Metabolic stability test in liver microsomes (rat); type: in vitro ADME; conditions: percentage of remaining compound after incubation for 30 minutes vs 0 minute; 1 μM compound; 0.5 mg/mL liver microsomes; 37° C.
Experimental: as §1, §2, §3, §4, §5, §6

T2 sequence (O75874 whole entry R132H): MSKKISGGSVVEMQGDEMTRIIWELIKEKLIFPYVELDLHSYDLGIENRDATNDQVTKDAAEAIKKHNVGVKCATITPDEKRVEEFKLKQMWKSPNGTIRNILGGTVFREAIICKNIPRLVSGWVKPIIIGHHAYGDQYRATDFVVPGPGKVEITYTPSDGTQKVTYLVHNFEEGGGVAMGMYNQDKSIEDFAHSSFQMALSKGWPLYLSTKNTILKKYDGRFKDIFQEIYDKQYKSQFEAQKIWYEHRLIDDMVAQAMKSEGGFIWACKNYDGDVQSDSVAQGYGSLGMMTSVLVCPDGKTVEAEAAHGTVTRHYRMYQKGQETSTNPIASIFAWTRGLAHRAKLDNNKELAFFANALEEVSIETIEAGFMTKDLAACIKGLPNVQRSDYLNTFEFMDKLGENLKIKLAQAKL

| IC50 (IDH2-R140Q) [nM] | IC50 (IDH1-R132H) [nM] | Mouse liver microsome stability [1] [%] | Rat liver microsome stability [2] [%] | SMILES |
| --- | --- | --- | --- | --- |
| 131 | 1140 | 65.4 | 82.6 | CC(C)Nc1nc(N[C@H](C)C(F)(F)F)nc(C2=C(F)C(O)C(F)(F)CC2)n1 (stereo partly drawn) [Compound 94, 2,6,6-Trifluoro-3-(4-(isopropylamino)-6-(((R)-1,1,1-trifluoropropan-2-yl)amino)-1,3,5-triazin-2-yl)cyclohex-2-en-1-ol] |
| 80 | 750 | 82.1 | 62.9 | CC(Nc1nc(NC2CC(F)(F)C2)nc(C2=C(F)C(O)CCC2)n1)C(F)(F)F (racemic) [Compound 4] |
| 284 | 1020 | 80.3 | 87.6 | C[C@H](Nc1nc(N[C@H](C)C(F)(F)F)nc(C2=C(F)C(O)CCC2)n1)C(F)(F)F (mixture of isomers) [Compound 11] |
| 46 | 344 | 91.8 | 93.0 | C[C@H](Nc1nc(NC2CC(F)(F)C2)nc(C2=C(F)C(O)C(F)(F)CC2)n1)C(F)(F)F (mixture of isomers) [Compound 239] |
| 87 | 1500 | 49.8 | 50.3 | C[C@@H](Nc1nc(NC2CCC2)nc(C2=C(F)C(O)CCC2)n1)C(F)(F)F (mixture of isomers) [Compound 7] |
| 205 | 781 | 88.5 | 97.9 | [2H]C1([2H])CCC(c2nc(N[C@@H](C)C(F)(F)F)nc(N[C@@H](C)C(F)(F)F)n2)=C(F)C1O (stereo partly drawn) [Compound 87] |
| 137 | 365 | 83.8 | 99.0 | C[C@@H](Nc1nc(N[C@H](C)C(F)(F)F)nc(C2=C(F)C(O)CCC2)n1)C(F)(F)F (mixture of isomers) [Compound 2] |
| 43 | 317 | 80.1 | 74.8 | CC(C)Nc1nc(N[C@H](C)C(F)(F)F)nc(C2=C(F)C(O)C(F)CC2)n1 (single isomer, unassigned) [Compound 95] |
| 86 | 289 | 58.2 | 79.8 | C[C@@H](Nc1nc(N[C@H](C)C(F)(F)F)nc(C2=CC(O)CCC2)n1)C(F)(F)F (mixture of isomers) [Compound 126] |
| 40 | 70 | 76.3 | 86.6 | C[C@@H](Nc1nc(N[C@@H]2CCC(F)(F)C2)nc(C2=C(F)C(O)C(F)CC2)n1)C(F)(F)F (single isomer, unassigned) [Compound 232] |
| 110 | 219 | 82.7 | 91.5 | [2H]C1(O)CCCC(c2nc(N[C@H](C)C(F)(F)F)nc(N[C@H](C)C(F)(F)F)n2)=C1F (mixture of isomers) [Compound 18] |
| 383 | 1100 | 96.4 | 94.2 | OC1C(F)=C(c2nc(NC3CC(F)(F)C3)nc(NC3CC(F)(F)C3)n2)CCC1F (single isomer, unassigned) [Compound 202] |
| 93 | 869 | 58.6 | 76.8 | OC1CCCC(c2nc(NC3CC(F)(F)C3)nc(NC3CC(F)(F)C3)n2)=C1F (stereo not drawn) [Compound 5] |
| 98 | 733 | 91.3 | 92.1 | OC1C(F)=C(c2nc(NC3CC(F)(F)C3)nc(NC3CC(F)(F)C3)n2)CCC1(F)F (stereo not drawn) [Compound 203] |
| 97 | – | 83.5 | 73.8 | CC(C)Nc1nc(N[C@H](C)C(F)(F)F)nc(C2=C(F)C(O)CCC2)n1 (mixture of isomers) [Compound 1, 2-Fluoro-3-(4-(isopropylamino)-6-(((R)-1,1,1-trifluoropropan-2-yl)amino)-1,3,5-triazin-2-yl)cyclohex-2-en-1-ol] |
| 130 | 246 | 75.5 | 89.0 | C[C@@H](Nc1nc(N[C@@H]2CCC(F)(F)C2)nc(C2=C(F)C(O)C(F)(F)CC2)n1)C(F)(F)F (mixture of isomers) [Compound 235] |
| 57 | 213 | 86.9 | 95.1 | C[C@@H](Nc1nc(NC2CC(F)(F)C2)nc(C2=C(F)C(O)C(F)(F)CC2)n1)C(F)(F)F (stereo partly drawn) [Compound 259, 3-(4-((3,3-Difluorocyclobutyl)amino)-6-(((R)-1,1,1-trifluoropropan-2-yl)amino)-1,3,5-triazin-2-yl)-2,6,6-trifluorocyclohex-2-en-1-ol] |
| 46 | 94 | 31.0 | 45.9 | C[C@@H](Nc1nc(NC2CCC(F)(F)C2)nc(C2=CC(O)CCC2)n1)C(F)(F)F (mixture of isomers) [Compound 177] |
| 137 | 658 | 44.1 | 74.1 | CC(C)Nc1nc(N[C@H](C)C(F)(F)F)nc(C2=CC(O)CCC2)n1 (mixture of isomers) [Compound 124, 3-(4-(Isopropylamino)-6-(((R)-1,1,1-trifluoropropan-2-yl)amino)-1,3,5-triazin-2-yl)cyclohex-2-en-1-ol] |
| 48 | 268 | 78.9 | 67.8 | [2H]C1([2H])CCC(c2nc(NC3CC(F)(F)C3)nc(N[C@@H](C)C(F)(F)F)n2)=C(F)C1O (stereo partly drawn) [Compound 84] |
| 92 | – | 15.9 | 34.0 | C[C@@H](Nc1nc(NC2CCC2)nc(C2=CC(O)CCC2)n1)C(F)(F)F (mixture of isomers) [Compound 128] |
| 64 | 203 | 28.7 | 49.8 | OC1C=C(c2nc(NC3CC(F)(F)C3)nc(NC3CC(F)(F)C3)n2)CCC1 (stereo not drawn) [Compound 127] |
| – | – | 91.5 | 98.2 | [2H]C1(O)C(F)=C(c2nc(N[C@H](C)C(F)(F)F)nc(N[C@H](C)C(F)(F)F)n2)CCC1F (stereo partly drawn) [Compound 266, 3-(4,6-Bis(((R)-1,1,1-trifluoropropan-2-yl)amino)-1,3,5-triazin-2-yl)-2,6-difluorocyclohex-2-en-1-D-1-ol] |
| 58 | – | 70.5 | 86.6 | [2H]C1([2H])CCC(c2nc(NC3CC(F)(F)C3)nc(NC3CC(F)(F)C3)n2)=C(F)C1([2H])O (racemic) [Compound 91] |
| – | – | 83.7 | 96.6 | [2H]C1([2H])CCC(c2nc(N[C@H](C)C(F)(F)F)nc(N[C@H](C)C(F)(F)F)n2)=C(F)C1([2H])O (mixture of isomers) [Compound 83, 3-(4,6-bis(((R)-1,1,1-trifluoropropan-2-yl)amino)-1,3,5-triazin-2-yl)-2-fluorocyclohex-2-en-1,6,6-D3-1-ol] |
